Results: patent US20260365692A1, “COMPOSITIONS COMPRISING PROTEINS DISSOLVED IN FLUORINATED SOLVENTS, AND METHODS OF MAKING AND USING THE SAME” (priority 2022, published 2026)

Tests used:
[1] = β-Gal activity after bleach exposure; format: physicochemical; details: β-Gal in PFOc
Method: FIGS. 54A-54C depict the relative activity of the β-Gal protein dispersed in PBS or PFOc solvents without and with contamination by (FIG. 54A) proteinase K, (FIG. 54B) bleach or (FIG. 54C) hydrochloric acid. Data shown as average±s.d. of n=3 technical replicates. Statistical significance between conditions is indicated by a line using unpaired Student's t-test with n.s.=not significant, * p<0.05, ** p<0.01, and *** p<0.001.
Here, stock of lyophilized β-Gal was prepared then dispersed in PBS or PFOc. A small volumetric quantity (1% v/v) of 10% bleach was added to the protein samples. Immediately, an equal volume of PBS containing 4 mg/mL ONPG substrate was added to the sample and incubated for 5 minutes to allow for complete substrate conversion. Last, absorbance was taken at 420 nm on the eluted samples, and relative activity was calculated by normalizing absorbance of converted ONPG in oxidizer-treated samples against their corresponding untreated group. […] Here, stock of lyophilized B-Gal was prepared then dispersed in PBS or PFOc. A small volumetric quantity (4% v/v) of 0.1 M HCl was added to the protein samples. After 30 seconds incubation, PBS containing 4 mg/mL ONPG was added to each of the samples to elute and start substrate conversion. After 3-minute conversion, the eluted samples were retrieved, and absorbance was read at 420 nm. […]

[2] = Temperature-dependent circular dichroism of proteins in PFOc or PBS (Example 4); format: physicochemical; details: dispersed in PFOc using PD-7, heated up to 85 °C
Method: FIGS. 39A-39B depict temperature-dependent CD spectra of the indicated test protein solubilized in PFOc using the PD-7 dispersant, or PBS as a control.
FIG. 40 depicts the change in minimum CD ellipticity over the 40 °C-85 °C temperature interval for the indicated protein dissolved in either PBS or PFOc.
To determine structural integrity of proteins in aqueous and fluorinated environments at elevated temperatures, circular dichroism (CD) was used to probe secondary structure. Proteins were either diluted in PBS (aqueous) or dispersed in PFOc at the same designated concentrations according to protocol described above. For aqueous samples, dissolved proteins were heated between 40 °C to 90 °C, and their corresponding CD spectra at each temperature was measured. For PFOc samples, each of the PFOc dispersed proteins were subjected to heat treatment at 40, 55, 70, and 85 °C for 15 minutes. After that, dispersed proteins were eluted into PBS before having their CD spectra taken. Data is shown by representative ellipticity at each temperature depicted by distinct colors.

human hemoglobin (Hb) = human hemoglobin (Hb) (Homo sapiens, UniProt P68871+P69905); experiment: Circular dichroism with PFNA, Hb
Sequence of human hemoglobin (Hb) (P69905 whole entry): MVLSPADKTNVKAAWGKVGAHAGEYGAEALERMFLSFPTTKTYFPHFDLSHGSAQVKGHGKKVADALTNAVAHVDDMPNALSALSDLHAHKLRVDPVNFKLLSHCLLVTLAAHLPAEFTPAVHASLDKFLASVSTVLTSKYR
Sequence of human hemoglobin (Hb) (P68871 whole entry): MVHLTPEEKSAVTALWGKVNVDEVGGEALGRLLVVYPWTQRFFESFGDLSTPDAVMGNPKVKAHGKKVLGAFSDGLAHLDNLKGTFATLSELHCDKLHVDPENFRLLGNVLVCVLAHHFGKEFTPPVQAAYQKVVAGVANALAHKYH
Description: (§1) FIGS. 14A-14L depict circular dichroism spectra of Hb (FIG. 14A), GFP (FIG. 14B), BSA (FIG. 14C), β-Gal (FIG. 14D), rabbit serum IgG (FIG. 14E), transferrin (FIG. 14F), and urease (FIG. 14G) in the absence (black line) or presence (dashed lines) of PFNA. Increasing dash sequence indicated higher concentration of PFNA. FIG. 14H: Change in molar ellipticity at 216 nm (Δθ216) of PFNA-treated proteins, relative to native controls, as a function of increasing ligand concentration. FIG. 14I: Percentage change in secondary structural motifs of Hb, β-Gal and IgG between the native protein and 1 mM PFNA treated samples. β-sheet structures were further differentiated into parallel and antiparallel conformations. Hb, β-Gal and IgG were prioritized for analysis based on their significant spectral shift in the presence of 1 mM PFNA. FIGS. 14J-14L: Sensograms for BSA (FIG. 14J), β-gal (FIG. 14K), and IgG (FIG. 14L) showing relative response (R.U.) at 10, 25, 50, 75, and 100 μM.
(§2) To explore PFNA-mediated changes in protein structure, dose-response circular dichroism (CD) studies were performed (FIG. 14A-14G). […] Remarkably, these structural changes endured even at sub-stoichiometric PFNA:protein ratios (see 0.001 mM PFNA in […]; protein concentration was constant at 0.01 mM).

eGFP-PC9 lung cells = experiment: Imaging of eGFP-PC9 cells with PFNA; format: cell-based, human; details: PFNA-treated cells
Method: FIG. 21 depicts confocal micrographs of eGFP-PC9 cells in the absence (top) and presence (bottom) of PFNA.
FIG. 22 depicts an analysis of average cellular fluorescence (in relative fluorescence units, RFU) for cells treated without/with PFNA for 1, 2 and 5 hours. Statistical significance was determined using unpaired t-test, with n.s.=not significant, * p<0.05, ** p<0.01 and *** p<0.001.
FIG. 23 depicts analysis of cellular fluorescent area (in relative area units, RAU) for cells treated without/with PFNA for 1, 2 and 5 hours. Statistical significance was determined using unpaired t-test, with n.s.=not significant, * p<0.05, ** p<0.01 and *** p<0.001.
Imaging studies were performed to interpret the effect of PFNA exposure on the transport of endogenous proteins in cells. For these experiments, stably transfected eGFP-PC9 lung cells were prepared to track the time dependent sub-cellular localization of eGFP as a model protein target (FIGS. 21, […]).

[3] = system: green fluorescent protein (GFP); experiment: Circular dichroism with PFNA, GFP; details: increasing PFNA concentration
Description: as §1, §2

Compound: β-Gal: β-Galactosidase (β-Gal), dissolved in PBS/saline or dispersed in PFOc
- β-Gal activity versus PBS controls ([1]; bleach): statistically higher than that of PBS controls
- loss in functionality ([1]; bleach (1% v/v of 10% bleach), few minutes): ≥ 50%
- change in secondary structure [2]: minimal changes in secondary structure

Compound: O=C(O)C(F)(F)C(F)(F)C(F)(F)C(F)(F)C(F)(F)C(F)(F)C(F)(F)C(F)(F)F [Compound 7, perfluoronanonic acid]
- CD structural change, Hb (human hemoglobin (Hb); 0.001-0.1 mM PFNA): induced non-native α-helical structure
- CD structural change, Hb (human hemoglobin (Hb); 1 mM PFNA): slight loss of signal
- intracellular protein localization (eGFP-PC9 lung cells): remained relatively unchanged
- eGFP expression (eGFP-PC9 lung cells; particularly 1 hour): significant reduction
- CD structural change, GFP (θ216 nm) [3]: slight enhancement of β-sheet structure
